Test results reported in patent US11311570B2, “Method of inducing satiety” (PERORA GMBH, priority 2014, dated 2022).

Columns and labels:
[1] = published rat feeding study, independent from intake; cited from earlier work
[2] = Tryptophan release / dissolution in simulated gastric and intestinal fluid; format: physicochemical; conditions: 30 mg powder in 22 mL FaSSGF, 37° C.
Method: A sample of 200 mg of tryptophan-containing granules was suspended in 22 mL fasted-state simulated gastric fluid (FaSSGF) at 37° C. and agitated (shaker ST5 from CAT, Germany). FaSSGF was prepared by dissolving 1 g of NaCl (Sigma-Aldrich) in 450 mL of water, adding 30 mg of SIF powder (biorelvant.com), adjusting the pH to 2.0 with 0.1 N HCl (Sigma-Aldrich) and adding water to a final volume of 500 mL.
A sample of 200 mg of tryptophan-containing granules was suspended in 22 mL fasted-state simulated intestinal fluid (FaSSIF) at 37° C. and agitated (shaker ST5 from CAT, Germany).
30 mg of tryptophan powder were suspended in 22 mL FaSSGF at 37° C. and agitated (shaker ST5 from CAT, Germany). Aliquots were removed at time intervals of 5 min, and tryptophan concentration was quantified using absorption measurement at a wavelength of 280 nm in a NanoDrop® 2000 device (Thermo Scientific, USA).

SMILES | true digestibility of stearic acid from tristearin [1] | time after which quantitatively dissolved [2]
CCCCCCCCCCCCCCCCCC(=O)OCC(COC(=O)CCCCCCCCCCCCCCCCC)OC(=O)CCCCCCCCCCCCCCCCC [tristearin] | 0.15 g/g | 
N[C@@H](Cc1c[nH]c2ccccc12)C(=O)O [tryptophan powder, L-Tryptophan] |  | 10 min
